Assay results published in patent US20110288154A1, “RNA Interference Mediated Inhibition of Epithelial Sodium Channel (ENaC) Gene Expression Using Short Interfering Nucleic Acid (siNA)” (MERCK & CO., INC., priority 2008, published 2011).

Test system: ENaC
Test: FLIPR assay of sodium transport in recombinant HEK cells over expressing ENaC
Type: cell-based, human
Conditions: recombinant HEK cells expressing ENaC
Experimental: Recombinant HEK293 cell line (expressing ENaC beta & gamma) SCNN1B (P618AY620L)+SCNN1G (P624stop) #24. were grown at 37 deg in the presence of CO2 and were cultured in M1 medium M1+0.5 mg/ml geneticin and 0.2 mg/ml hygromycin.
Functional Effects on ENaC via FLIPR in Cells Over Expressing ENaCa: A reverse transfection methodology was used to transfect the HEK recombinant cell line. 5 ul of siRNA (diluted in Optimem to the appropriate concentration) was mixed with 5 ul of the Gemini lipid transfection reagent diluted in Optimem in 384 well non-coated FLIPR plate. Plates were incubated at room temperature for 20 minutes to allow complex formation. Cells were harvested, spun down, diluted to 3×10^5/ml and plated out at 40 ul/well (12K/well) in 384 well plate format containing the transfection complex. The plates were incubated overnight for 20 hours. The cells were then transduced with BacMam virus expressing ENaC alpha (BacMam viruses expressing SCNN1A, GRITS 29703, titre 0.356×10^8/ml). 30 ul of virus was added (1.7%) 20K/well, MOI was approximately 1. Cells were incubated for 24 hours. On day of the FLIPR assay, media was aspirated, leaving 10 ul volume. 20 ul of dye per well was loaded (FMP2 Blue dye, R8181, MDS. For each pot, 133 ml Tyrodes buffer was diluted to make 1× stock prior to assay). The plate was incubated for 0.5 hours at room temperature and 10 ul of the compound added on-line prior to FLIPR read (FLIPR settings: protocol Na MP.fcf, with Exposure length 0.4 sec and Filter #2). Compound plate: 1 ul volume, column 1, 2 and 3 are 16, 4 and 0 uM amiloride final (1/200 dilution) (IC80, IC50 and ctrl).

N=C(N)NC(=O)c1nc(Cl)c(N)nc1N [Amiloride, reference compound]
IC50 (read-out: IC50 of inhibitor in FLIPR assay): 4 µM | IC80 (read-out: IC80 of inhibitor in FLIPR assay): 16 µM
